Test system: iPS cell-derived human hepatic sinusoidal endothelial cells
Test: Detection of membrane attack complex in iPS cell-derived human hepatic sinusoidal endothelial cell with Oxaliplatin administration
Assay type: cell-based
Details: Oxaliplatin final concentration 20 μM vs solvent (ethanol), 3% human serum, 10% organoid culture supernatant

O=C1[O][Pt]2([NH][C@@H]3CCCC[C@H]3[NH]2)[O]C1=O [Oxaliplatin]
number of cells (quantified with DAPI as an index) (24 hr (FIG. 4A)): significant decrease in the number of cells
amount of MAC formed by human serum (24 hr (FIG. 4B)): significantly increased

From patent publication US20220252575A1, “SCREENING METHOD AND TOXICITY EVALUATION METHOD” (Public University Corporation Yokohama City University, priority 2019, published 2022)
